Test results: US20050079502A1, “Transplant rejection suppressor” (AJINOMOTO CO. INC., priority 2000, published 2005)

Legend:
[1] = tested on: IL-12; test: IL-12 productivity of Mφ prepared by intraperitoneal injection of substances; assay type: in vivo, mice; settings: stimulation with LPS and IFNγ; Mφ prepared by intraperitoneal injection of the substance
Protocol: (§1) The quantitative determination of IL-12 was conducted by a bioassay using human T cell strain 2D6 cells (refer to J. LEUKOCYTE BIOLOGY, vol. 61, PP 346, 1997).
(§2) The 2D6 cells cultured in RPMI 1640 medium containing 500 pg/ml of recombinant human IL-12, 50 μM 2-mercaptoethanol and 10% FCS (bovine fetal serum) were shifted into a tube and centrifugally washed three times with the same medium from which IL-12 was removed, and the cell concentration was adjusted to 1×10^5/ml. The cell suspension was added in an amount of 100 μl to each well of a 96-well flat bottom plate in which 100 μl of a sample diluted in series with RPMI 1640 medium containing 50 μM 2-mercaptoethanol and 10% FCS was previously charged in each well. The mixture was then charged into a 5% CO2 incubator at 37° C. to conduct the incubation for 48 hours. In the last 6 hours, ^3H-TdR was pulsed (a substance adjusted to 370 kBq/ml with RPMI 1640 medium containing 50 μM 2-mercaptoethanol and 10% FCS was added in an amount of 50 μl each). The cells were harvested, and a radioactivity was measured with a β counter (Matrix 96: manufactured by Packard).
Mφ prepared by intraperitoneally injecting LNT is reductive Mφ having a high GSH content, and Mφ prepared by intraperitoneally injecting LPS is oxidative Mφ having a low GSH content. It was examined whether or not there was a difference in IL-12 productivity between LNT derived Mφ and LPS derived Mφ.
Then, the same analysis was conducted using Mφ prepared by intraperitoneally injecting substances of changing the GSH content in cells.

[2] = tested on: IL-12; test: Inhibition of IL-12 production from LNT-induced Mφ by addition of DEM or BCNU; assay type: cell-based
Protocol: as §1, §2
It was shown that IL-12 was produced only in reductive Mφ having the high GSH content in cells. […] That is, it was analyzed whether the IL-12 production was inhibited by stimulating the Mφ induced by LNT with DEM or BCNU.

[3] = tested on: IL-6; test: IL-6 productivity of Mφ from treated JAK3 knockout mice; assay type: in vivo; settings: LPS stimulation, 1 mg/ml in drinking water 24 days, untreated knockout 962 pg/ml
Protocol: A stimulator was added to 1×10^6 Mφ, and the mixture was incubated in a CO2 incubator at 37° C. for 2 days. After centrifugation, the culture supernatant was collected.
The quantitative determination of IL-6 was conducted using mouse hybridoma MH60 cells grown dependently on IL-6 (refer to J. EUR. IMMUNOL., vol. 18, PP 951, 1988). 100 μl of the culture supernatant was added to 100 μl of the MH60 cell solution adjusted to a concentration of 1×10^5 cells/ml with a 10% FCS-containing RPMI medium, and the mixture was incubated in a CO2 incubator at 37° C. for 2 days. Then, 10 μl of MTT (made by Sigma) was adjusted to a concentration of 5 mg/ml with the same medium. The mixture was reacted at 37° C. for 5 hours. After completion of the reaction, the reaction mixture was centrifuged to remove 160 μl of the supernatant. 100 μl of hydrochloric acid-propanol was added thereto, and it was suspended therein with a pipette man to dissolve cells. Immediately after the dissolution, absorbance of 570 nm was measured by an immunometer (manufactured by Bio-Rad).
(§3) JAK3 knockout mice were divided into three groups. […]

[4] = tested on: IL-12; test: IL-12 productivity of Mφ from treated JAK3 knockout mice; assay type: in vivo; settings: stimulation with LPS and IFNγ, 1 mg/ml in drinking water 24 days, no productivity in control group
Protocol: as §1, §2, §3

[5] = tested on: peritoneal Mφ of JAK3 knockout mice; test: GSH content in peritoneal cells of treated JAK3 knockout mice, ACAS with MCB reagent; assay type: in vivo; settings: 1 mg/ml in drinking water, 24 days
Protocol: 300 μl of a cell suspension having cell concentration of 3×10^5 cells/ml was prepared in RPMI 1640 medium (phenol-red-free), and it was charged into a chambered coverglass (#136439 manufactured by Nunc) and incubated in a CO2 incubator of 37° C. for 2 hours. The culture solution was washed with the same medium, and 300 μl of 10 μM monochlorobimane (made by Molecular Plobe) prepared with the same medium was added thereto. The mixture was charged into a CO2 incubator of 37° C., and reacted for 30 minutes. An intensity of fluorescence was then measured by ACAS. By this way, UV laser was used in the ACAS.
JAK3 knockout mice were divided into three groups. A control group was a group in which mice were caused to freely drink usual tap water, an NAC group was a group in which mice were caused to freely drink tap water containing 1 mg/ml of NAC, and a GSH-OEt group was a group in which mice was caused to freely drink tap water containing 1 mg/ml of GSH-OEt. The bleeding was continued under SPF conditions for 24 days, and peritoneal exudate adhered cells, namely macrophages were obtained in like manner.
Peritoneal cells of knockout mice that underwent the respective treatments were prepared, and the GSH content in cells was analyzed by ACAS using an MCB reagent.

[6] = tested on: skin graft (B10.D2 donor, BALB/c recipient, different in minor antigen only); test: Skin transplantation rejection model; assay type: in vivo, mouse
Protocol: Mice, 8 to 10 weeks old, are used, a BALB/c (H-2d) mouse is used as a recipient in transplantation, and a B10.D2 (H-2d) mouse different in minor antigen only is used as a donor. To the recipient mouse, 3 mg of ketamine and 0.0075 mg of xylazine for anesthesia are intraperitoneally administered, and transplantation is performed. The skin on the body wall of the donor mouse is transplanted on the thoracic wall (8×8 mm). A gauze having a larger size than the graft covers there, and an antibiotic ointment is applied. The graft is fastened with a cast to complete the operation. The cast is removed after 7 days, and the rejection is then observed every day.
Mice, 8 to 10 weeks old, were used. A BALB/c (H-2d) mouse was used as a recipient of transplantation, and a B10.D2 (H-2d) mouse different in minor antigen only was used as a donor. […]
With respect to the drug, N,N′-diacetylcystine diethyl ester, 0.5 ml, per injection, of a 400 μg/ml solution was injected in each of the B10.D2 donor and the BALB/c recipient intraperitoneally and subcutaneously in a site for skin transplantation. […] The significant difference in graft survival rate after the skin transplantation was comparatively detected by the Breslow-Gehan-Wilcoxon test using Kaplan-Meier survival curves. […]

[7] = tested on: corneal graft (B10.D2 donor, BALB/c recipient, different in minor antigen only); test: Corneal transplantation into high-risk eyes (induced corneal new blood vessels); rejection judged by corneal opacity score; assay type: in vivo, mouse
From the text: In estimating the induction of the cornea take in the corneal allograft, mice, 8 to 10 weeks old, are used, a BALB/c (H-2d) mouse is used as a recipient, and a B10.D2 (H-2d) mouse only different in minor antigen is used as a donor.
The corneal transplantation inducing corneal new blood vessel of a high-risk eye that tends to cause rejection at a high rate in an early stage in a recipient: a corneal parenchyma is sutured with three stitches using a 11-0 nylon yarn which is allowed to stand for 14 days and the nylon yarn is removed in the corneal transplantation, is performed as follows. To a recipient mouse are intraperitoneally administered 3 mg of ketamine and 0.0075 mg of xylazine for anesthesia, and transplantation is performed. A central portion of cornea in a donor mouse is cut out to a circle having a diameter of 2 mm to form a graft. A central portion of cornea in a host mouse is cut out to a diameter of 2 mm. The donor cornea is sutured on margins with eight stitches using a 11-0 nylon yarn. After the surgical operation, an antibiotic ointment is coated thereon, and the eyelids are sutured with a 8-0 nylon yarn. The eyelid suture is removed after 72 hours from the surgical operation, and the corneal suture is removed on day 7 after the transplantation.
In the judgement of the corneal rejection, monitoring is performed twice a week using a slit-lamp microscope. The rejection is judged by scoring a corneal opacity with six grades. In connection with a time capable of judgement, the score of 3 or more on or after day 14 from the transplantation and the score of 2 or more on or after day 21 are judged to indicate the rejection. […]
In a method of one administration, a drug is dissolved or suspended in a physiological saline solution to a predetermined concentration, and 0.5 ml thereof is then intraperitoneally injected in a mouse. […] A significant difference in graft survival rate of the corneal transplantation was comparatively detected by the Breslow-Gehan-Wilcoxon test using Kaplan-Meier survival curves. […]

[8] = tested on: peritoneal exudate cells (macrophages); test: Induction of oxidative or reductive macrophages, monochlorobimane/ACAS analysis of peritoneal exudate cells; assay type: in vivo; settings: i.p. to mice: 20 μg LPS; 100 μg LNT three times every other day; monochlorobimane 10 μM, ACAS
From the text: The increase in amount of oxidative macrophages can easily be detected visually from the fact that almost no reaction product is observed. More specifically, a gray or blue image is obtained. An increase in amount of reductive macrophages is known from the fact that a red or yellow image can be obtained.

For `CCCCS(=N)(=O)CCC(N)C(=O)O` [BSO, L-S, R-buthionine sulfoximine], which IL-12 productivity [1] is on record?
The IL-12 productivity was “IL-12 was produced by stimulation with LPS and IFNγ only in Mφ derived from mice administered with GSH-OEt”.

Which results are given for `CCOC(=O)/C=C\C(=O)OCC` [DEM]?
IL-12 production from the Mφ induced by LNT after addition ([2]; addition of DEM or BCNU to LNT-induced Mφ, 828 pg/ml without addition): 0 pg/mL; IL-12 productivity [1]: IL-12 was produced by stimulation with LPS and IFNγ only in Mφ derived from mice administered with GSH-OEt

What does the source list for `CCOC(=O)CNC(=O)[C@H](CS)NC(=O)CC[C@H](N)C(=O)O` [GSH-OEt]?
IL-6 productivity [3]: 82 pg/mL; IL-12 productivity [4]: 610 pg/mL; reduced glutathione content in peritoneal Mφ vs tap water control group [5]: remarkably increased; IL-12 productivity [1]: 3,570 pg/ml

Which MST ([6]; 0.5 ml of 400 μg/ml i.p. and s.c., x3 before (donor and recipient) and day 3-21 after skin transplantation, N=8) does the source give for `CCOC(=O)[C@H](CSSC[C@H](NC(C)=O)C(=O)OCC)NC(C)=O` [N,N′-diacetylcystine diethyl ester] here?
The MST was 28.3 ± 1.8 days.

What about the “graft survival rate in comparison to the PBS administration control group” value ([6]; skin transplantation, N=8 vs N=10, P<0.013) of the same compound?
Its value is “significantly increased”.

What does the source list for `COC(=O)[C@H](CSSC[C@H](NC(C)=O)C(=O)OC)NC(C)=O` [NAC (OMe)2, N,N′-diacetylcystine dimethyl ester]?
graft survival rate in comparison to the PBS administration control group ([7]; 0.5 ml of 400 μg/ml i.p. 7 days, 4 days and 1 hour before corneal transplantation, N=15 vs N=10, P<0.0001, Breslow-Gehan-Wilcoxon test): significantly increased; rejection in 3 weeks ([7]; high-risk eye corneal graft, i.p. x3 before transplantation, PBS control rejected by 100% in approximately 3 weeks): 0%; graft survival rate finally provided ([7]; high-risk eye corneal graft, observed till the eighth week): 77%

What does the source list for `CC(=O)N[C@@H](CS)C(=O)O` [NAC]?
IL-6 productivity [3]: 122 pg/mi; IL-12 productivity [4]: 420 pg/mL; reduced glutathione content in peritoneal Mφ vs tap water control group [5]: remarkably increased

Which “IL-12 production from the Mφ induced by LNT” value ([2]; without addition of DEM or BCNU) does the source give for letinan [LNT] here?
The value was 828 pg/mL.

What about the “type of macrophages induced” value [8] of the same compound?
The value was “reductive macrophages were induced”.

And the IL-12 productivity [1]?
The IL-12 productivity was 1,312 pg/ml.

For lipopolysaccharide [LPS], which “type of macrophages induced” value [8] is on record?
Its value is “oxidative macrophages were induced”.

And the IL-12 productivity [1]?
Its IL-12 productivity is “no productivity was observed”.
